Measurements published in US12303509B2, “Compounds for the treatment of BRAF-associated diseases and disorders” (Pfizer Inc., priority 2020, dated 2025).
Structures can show the parent of a compound that is named as a salt.

Assays:
[1] = target: full-length FLAG-tagged B-Raf(V600E) (Homo sapiens (Human), UniProt P15056, V600E); assay: BRAF V600E enzyme assay (TR-FRET competitive displacement); assay type: binding; details: averaged IC50; TR-FRET tracer displacement, 60 min
Protocol: A competitive displacement assay was configured for B-Raf that monitors the amount of a fluorescently-tagged “tracer” bound to B-Raf via TR-FRET from an anti-tag Eu-labeled antibody also bound to B-Raf. For full-length FLAG-tagged B-Raf(V600E), the assay mixtures consisted of 25 mM K^+HEPES, pH 7.4, 10 mM MgCl2, 0.01% Triton X-100, 1 mM DTT, 2% DMSO (from compound), 50 nM Tracer 1710 (ThermoFisher, PR9176A), 0.5 nM Eu anti-FLAG (M2)-cryptate Ab (Cisbio, 61FG2KLB) and 5 nM full-length, N-terminally FLAG-tagged B-Raf(V600E) (Origene Technologies, TP700031. Compounds were typically diluted in DMSO across an 11-point dosing range created using a 3-fold serial dilution protocol at a top dose of 10 μM. The assay was run in 384-well, polystyrene, low-volume, non-treated, white microtiter plates (Costar 4512) in a final volume of 12 μL. Low control wells included 1 μM of a potent B-Raf inhibitor as a control. The assays were incubated at ambient temperature (typically 22° C.) for 60 min and then read on a PerkinElmer EnVision microplate reader using standard TRF settings (λEx=320 nm, λEm=615 & 665 nm). The ratioed counts (665 nm/615 nm) were converted to percent of control (POC) using the following equation:
[formula] • where: • Xmax Average Uninhibited Controls • Xmin Average Background
A 4-parameter logistic model was the fit to the POC data for each compound. From that fit, the IC50 was estimated and is defined as the concentration of compound at which the best-fit curve crosses 50 POC.

[2] = test system: A375 cells; assay: Cellular phospho-ERK inhibition assay in A375 cells; assay type: cell-based; details: Homo sapiens, A-375, A375 cells (head prints A357), 2 hours treatment, read-out: A357 cell IC50
Protocol: A375 and H1755 cells were obtained from the American Type Culture Collection (ATCC, Rockville, MD). A375 cells were maintained in DMEM growth medium containing 10% FBS. H1755 cells were maintained in RPMI growth medium containing 10% FBS.
Cells were harvested according to standard protocols, counted and plated onto flat-bottom, 96-well tissue culture plates (Costar #3599) at 2.5×10^4 cells/well for A375 cells and 1.5×10^4 cells/well for H1755 cells in 100 μL/well of growth medium containing 10% FBS. After an overnight incubation at 37° C. with 5% CO2 cells were treated for 2 hours at 37° C., 5% CO2 with compounds prepared as a 9-point, 1:3.33 fold dilution series with final compound concentrations ranging from 66 pM-10 μM and a constant DMSO concentration of 0.25%. Control wells contained either 0.25% DMSO alone (uninhibited control) or 10 μM binimetinib (complete inhibition control). The levels of phosphorylated ERK are determined using an In Cell Western protocol: following compound incubation, growth medium was discarded, and cells were fixed with 0.4% formaldehyde in PBS for 20 minutes at room temperature. Cells were permeabilized with 100% methanol for 10 minutes at room temperature. Plates were washed with PBS containing 0.05% Tween-20 and blocked for 1 hour at room temperature with LI-COR Blocking Buffer (LI-COR Biosciences; Cat #927-40000). Plates were then incubated for 2 hours at room temperature with 50 μL of a 1:400 dilution of anti-phospho-ERK1/2 (Thr202/Tyr204) (Cell Signaling; Cat #9101) and a 1:1000 dilution of anti-GAPDH (Millipore; Cat #MAB374) in LI-COR blocking buffer containing 0.05% Tween-20. Plates were washed with PBS containing […] Tween-20 then incubated at room temperature for 1 hour with 50 μL of a 1:1000 dilution of anti-rabbit AlexaFluor 680 (Life Technologies; Cat #A21109) and a 1:1000 dilution of anti-mouse IRDye 800CW (LI-COR; Cat #926-32210) in LI-COR blocking buffer containing 0.05% Tween-20. Plates were analyzed by reading on an Odyssey CLx infrared scanner. For each well, the phospho-ERK signal was normalized to the GAPDH signal and converted to POC using the following equation:
[formula] • Where: • Xmax Average Uninhibited Controls • Xmin Average Complete Inhibition Controls IC50 values were then calculated using a 4-parameter fit in XLfit software and are provided in Table A1.

[3] = target: BCRP (Homo sapiens (Human), UniProt Q9UNQ0); assay: BCRP MDCKII permeability assay: efflux ratio; assay type: in vitro ADME; details: dog
[4] = target: P-gp (MDR1) (Homo sapiens (Human), UniProt P08183); assay: MDR1 LLC-PK1 permeability assay: efflux ratio; assay type: in vitro ADME; details: pig
From the text: (§1) Final organic concentration in the assay was 1%.

[5] = MDR1 LLC-PK1 and BCRP MDCKII permeability assay: permeability coefficient (Papp); assay type: in vitro ADME
From the text: as §1

BCRP, sequence (Q9UNQ0 whole entry): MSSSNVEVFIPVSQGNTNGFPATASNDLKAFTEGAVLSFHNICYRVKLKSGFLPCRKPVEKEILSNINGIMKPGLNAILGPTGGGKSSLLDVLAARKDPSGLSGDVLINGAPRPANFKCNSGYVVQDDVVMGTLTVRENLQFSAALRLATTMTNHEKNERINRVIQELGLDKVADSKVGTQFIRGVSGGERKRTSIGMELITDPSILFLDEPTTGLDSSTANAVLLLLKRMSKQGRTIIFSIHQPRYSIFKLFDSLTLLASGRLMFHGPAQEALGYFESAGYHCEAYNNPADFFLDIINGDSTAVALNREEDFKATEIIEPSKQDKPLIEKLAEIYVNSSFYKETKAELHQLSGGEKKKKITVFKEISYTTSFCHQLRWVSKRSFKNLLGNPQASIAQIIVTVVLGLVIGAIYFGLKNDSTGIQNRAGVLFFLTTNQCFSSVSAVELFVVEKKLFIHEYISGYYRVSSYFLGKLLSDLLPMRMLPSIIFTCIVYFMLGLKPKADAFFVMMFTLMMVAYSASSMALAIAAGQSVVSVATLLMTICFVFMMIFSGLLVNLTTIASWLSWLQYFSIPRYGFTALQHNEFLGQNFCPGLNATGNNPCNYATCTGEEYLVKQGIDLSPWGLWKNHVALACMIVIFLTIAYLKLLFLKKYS
full-length FLAG-tagged B-Raf(V600E), sequence (P15056 whole entry V600E): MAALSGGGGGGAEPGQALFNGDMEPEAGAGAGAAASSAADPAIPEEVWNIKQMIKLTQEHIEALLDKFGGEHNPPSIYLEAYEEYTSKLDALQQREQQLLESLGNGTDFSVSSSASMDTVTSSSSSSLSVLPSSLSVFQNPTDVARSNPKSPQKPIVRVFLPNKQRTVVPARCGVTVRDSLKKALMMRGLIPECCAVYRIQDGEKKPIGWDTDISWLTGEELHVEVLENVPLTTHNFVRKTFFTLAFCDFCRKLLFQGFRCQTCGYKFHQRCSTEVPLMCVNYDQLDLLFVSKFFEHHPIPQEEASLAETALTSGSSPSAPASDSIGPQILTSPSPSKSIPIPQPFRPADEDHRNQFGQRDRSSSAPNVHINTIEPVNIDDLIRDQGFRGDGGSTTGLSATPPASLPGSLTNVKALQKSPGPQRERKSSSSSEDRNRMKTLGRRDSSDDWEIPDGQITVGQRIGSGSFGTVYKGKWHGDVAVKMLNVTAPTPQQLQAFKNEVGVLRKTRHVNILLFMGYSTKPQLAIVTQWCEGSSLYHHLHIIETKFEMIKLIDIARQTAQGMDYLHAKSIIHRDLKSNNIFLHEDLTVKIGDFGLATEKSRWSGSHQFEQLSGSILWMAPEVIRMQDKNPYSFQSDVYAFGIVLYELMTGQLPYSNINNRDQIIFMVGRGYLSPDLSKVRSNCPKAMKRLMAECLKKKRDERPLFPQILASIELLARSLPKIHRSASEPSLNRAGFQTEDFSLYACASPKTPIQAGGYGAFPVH
P-gp (MDR1), sequence (P08183 whole entry, species assumed): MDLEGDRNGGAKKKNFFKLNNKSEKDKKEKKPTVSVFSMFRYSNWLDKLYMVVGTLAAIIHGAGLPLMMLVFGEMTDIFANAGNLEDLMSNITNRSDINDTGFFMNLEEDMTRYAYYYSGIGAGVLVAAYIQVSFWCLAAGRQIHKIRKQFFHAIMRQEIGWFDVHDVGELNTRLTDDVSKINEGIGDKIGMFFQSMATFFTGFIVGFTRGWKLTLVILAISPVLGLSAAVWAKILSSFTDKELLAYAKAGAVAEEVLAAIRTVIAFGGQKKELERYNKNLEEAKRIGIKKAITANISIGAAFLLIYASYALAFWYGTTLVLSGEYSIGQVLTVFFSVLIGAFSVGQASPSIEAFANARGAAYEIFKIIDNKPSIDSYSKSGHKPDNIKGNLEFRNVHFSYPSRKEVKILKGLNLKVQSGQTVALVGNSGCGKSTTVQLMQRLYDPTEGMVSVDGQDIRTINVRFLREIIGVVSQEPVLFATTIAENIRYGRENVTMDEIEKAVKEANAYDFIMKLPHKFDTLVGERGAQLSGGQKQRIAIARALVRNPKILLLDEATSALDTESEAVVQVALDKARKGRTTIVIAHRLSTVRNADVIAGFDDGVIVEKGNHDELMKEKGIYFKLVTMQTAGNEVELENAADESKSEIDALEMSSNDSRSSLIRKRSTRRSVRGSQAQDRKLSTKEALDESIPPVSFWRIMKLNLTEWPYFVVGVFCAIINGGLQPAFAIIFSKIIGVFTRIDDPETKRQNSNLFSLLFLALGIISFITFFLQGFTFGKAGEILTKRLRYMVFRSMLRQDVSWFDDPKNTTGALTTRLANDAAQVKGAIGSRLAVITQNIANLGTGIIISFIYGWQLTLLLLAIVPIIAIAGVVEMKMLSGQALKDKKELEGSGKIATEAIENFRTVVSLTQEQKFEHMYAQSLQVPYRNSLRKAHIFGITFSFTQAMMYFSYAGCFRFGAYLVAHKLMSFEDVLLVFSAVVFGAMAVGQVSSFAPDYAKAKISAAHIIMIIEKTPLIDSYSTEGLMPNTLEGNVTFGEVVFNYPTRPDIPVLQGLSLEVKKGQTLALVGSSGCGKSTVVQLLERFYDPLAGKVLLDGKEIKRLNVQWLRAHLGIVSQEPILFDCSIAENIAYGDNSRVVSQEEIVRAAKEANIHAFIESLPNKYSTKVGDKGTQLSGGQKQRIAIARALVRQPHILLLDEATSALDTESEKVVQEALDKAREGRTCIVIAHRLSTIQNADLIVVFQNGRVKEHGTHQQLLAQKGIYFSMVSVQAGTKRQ

| SMILES | IC50 [1] [µM] | IC50 [2] [µM] | efflux ratio at 2 h, 1 µM [3] | efflux ratio at 2 h, 1 µM [4] | Papp at 2 h, 1 µM [5] [×10⁻⁶ cm/s] |
| --- | --- | --- | --- | --- | --- |
| Cc1c(Nc2c(F)ccc(NS(=O)(=O)N3CCC(O)CC3)c2Cl)ccc2ncn(C)c(=O)c12 [Example 77, N-(2-chloro-3-((3,5-dimethyl-4-oxo-3,4-dihydroquinazolin-6-yl)amino)-4-fluorophenyl)-4-hydroxypiperidine-1-sulfonamide trifluoroacetate] | 0.177 | 0.127 | – | – | – |
| CCOC1CN(S(=O)(=O)Nc2ccc(F)c(Nc3ccc4ncn(C)c(=O)c4c3Cl)c2Cl)C1 [Example 141, N-(2-chloro-3-((5-chloro-3-methyl-4-oxo-3,4-dihydroquinazolin-6-yl)amino)-4-fluorophenyl)-3-ethoxyazetidine-1-sulfonamide] | 0.02 | 0.023 | 2.2 | 1.7 | 29 |
| Cc1c(Nc2c(F)ccc(NS(=O)(=O)N3CC(C)C3)c2Cl)ccc2ncn(C)c(=O)c12 [Example 147, N-(2-chloro-3-((3,5-dimethyl-4-oxo-3,4-dihydroquinazolin-6-yl)amino)-4-fluorophenyl)-3-methylazetidine-1-sulfonamide trifluoroacetate] | 0.019 | 0.067 | – | 1 | 28 |
| COC1CCN(S(=O)(=O)Nc2ccc(F)c(Nc3ccc4ncn(C)c(=O)c4c3C)c2Cl)CC1 [Example 75, N-(2-chloro-3-((3,5-dimethyl-4-oxo-3,4-dihydroquinazolin-6-yl)amino)-4-fluorophenyl)-4-methoxypiperidine-1-sulfonamide trifluoroacetate] | 0.191 | 0.114 | – | – | – |
| Cc1c(Nc2c(F)ccc(NS(=O)(=O)N3CC(OC(F)(F)F)C3)c2Cl)ccc2ncn(C)c(=O)c12 [Example 162, N-(2-chloro-3-((3,5-dimethyl-4-oxo-3,4-dihydroquinazolin-6-yl)amino)-4-fluorophenyl)-3-(trifluoromethoxy)azetidine-1-sulfonamide] | 0.114 | 1.28 | – | – | – |
| Cc1c(Nc2c(F)ccc(NS(=O)(=O)N3CC4(CCC4)C3)c2Cl)ccc2ncn(C)c(=O)c12 [Example 157, N-(2-chloro-3-((3,5-dimethyl-4-oxo-3,4-dihydroquinazolin-6-yl)amino)-4-fluorophenyl)-2-azaspiro[3.3]heptane-2-sulfonamide trifluoroacetate] | – | 0.886 | 1.2 | 1.2 | 23 |
| Cc1c(Nc2c(F)ccc(NS(=O)(=O)N(C)C3CC3)c2Cl)ccc2ncn(C)c(=O)c12 [Example 73, N-(2-chloro-3-((3,5-dimethyl-4-oxo-3,4-dihydroquinazolin-6-yl)amino)-4-fluorophenyl)-(N-cyclopropyl-N-methyl)-sulfamide] | 0.234 | 0.121 | – | – | – |
| Cc1c(Nc2c(F)ccc(NS(=O)(=O)N(C)C3CCOC3)c2Cl)ccc2ncn(C)c(=O)c12 (centres unmarked) [Example 72, N-(2-chloro-3-((3,5-dimethyl-4-oxo-3,4-dihydroquinazolin-6-yl)amino)-4-fluorophenyl)-(N-methyl-N-(tetrahydrofuran-3-yl))-sulfamide] | 0.299 | 0.195 | – | – | – |
| Cc1c(Nc2c(F)ccc(NS(=O)(=O)N3CC(COC(F)(F)F)C3)c2Cl)ccc2ncn(C)c(=O)c12 [Example 156, N-(2-chloro-3-((3,5-dimethyl-4-oxo-3,4-dihydroquinazolin-6-yl)amino)-4-fluorophenyl)-3-((trifluoromethoxy)methyl)azetidine-1-sulfonamide trifluoroacetate] | 0.202 | 0.872 | – | – | – |
| Cn1cnc2ccc(Nc3c(F)ccc(NS(=O)(=O)N4CC(OC(F)F)C4)c3Cl)c(F)c2c1=O [Example 144, N-(2-chloro-4-fluoro-3-((5-fluoro-3-methyl-4-oxo-3,4-dihydroquinazolin-6-yl)amino)phenyl)-3-(difluoromethoxy)azetidine-1-sulfonamide] | 0.01 | 0.033 | – | 5.2 | 27 |
| Cn1cnc2ccc(Nc3c(F)ccc(NS(=O)(=O)N4CC(OC(F)F)C4)c3Cl)c(Cl)c2c1=O [Example 143, N-(2-chloro-3-((5-chloro-3-methyl-4-oxo-3,4-dihydroquinazolin-6-yl)amino)-4-fluorophenyl)-3-(difluoromethoxy)azetidine-1-sulfonamide] | – | 0.045 | 3.9 | 2.6 | 16 |
| Cc1c(Nc2c(F)ccc(NS(=O)(=O)N3CCC(C(F)(F)F)C3)c2Cl)ccc2ncn(C)c(=O)c12 (centres unmarked) [Example 76, N-(2-chloro-3-((3,5-dimethyl-4-oxo-3,4-dihydroquinazolin-6-yl)amino)-4-fluorophenyl)-3-(trifluoromethyl)pyrrolidine-1-sulfonamide trifluoroacetate] | 0.183 | 0.622 | – | – | – |
| Cc1c(Nc2c(F)ccc(NS(=O)(=O)N(C)C3CCC3)c2Cl)ccc2ncn(C)c(=O)c12 [Example 74, N-(2-chloro-3-((3,5-dimethyl-4-oxo-3,4-dihydroquinazolin-6-yl)amino)-4-fluorophenyl)-(N-cyclobutyl-N-methyl)-sulfamide] | 0.203 | 0.16 | – | – | – |
| Cc1c(Nc2c(F)ccc(NS(=O)(=O)N3CC4CCC3C4)c2Cl)ccc2ncn(C)c(=O)c12 (centres unmarked) [Example 81, N-(2-chloro-3-((3,5-dimethyl-4-oxo-3,4-dihydroquinazolin-6-yl)amino)-4-fluorophenyl)-2-azabicyclo[2.2.1]heptane-2-sulfonamide trifluoroacetate] | 0.075 | 0.133 | – | – | – |
| Cc1c(Nc2c(F)ccc(NS(=O)(=O)N3CCC4CC4C3)c2Cl)ccc2ncn(C)c(=O)c12 (centres unmarked) [Example 80] | 0.103 | 0.311 | 0.6 | – | – |
| Cc1c(Nc2c(F)ccc(NS(=O)(=O)N3CCC4CC43)c2Cl)ccc2ncn(C)c(=O)c12 (centres unmarked) [Example 153, N-(2-chloro-3-((3,5-dimethyl-4-oxo-3,4-dihydroquinazolin-6-yl)amino)-4-fluorophenyl)-2-azabicyclo[3.1.0]hexane-2-sulfonamide trifluoroacetate] | 0.071 | 0.31 | – | – | – |
| Cc1c(Nc2c(F)ccc(NS(=O)(=O)N3CC(C#N)C3)c2Cl)ccc2ncn(C)c(=O)c12 [Example 146, N-(2-chloro-3-((3,5-dimethyl-4-oxo-3,4-dihydroquinazolin-6-yl)amino)-4-fluorophenyl)-3-cyanoazetidine-1-sulfonamide trifluoroacetate] | 0.027 | 0.031 | – | 6.9 | 17 |
| Cc1c(Nc2c(F)ccc(NS(=O)(=O)N3CC(COCF)C3)c2Cl)ccc2ncn(C)c(=O)c12 [Example 164, N-(2-chloro-3-((3,5-dimethyl-4-oxo-3,4-dihydroquinazolin-6-yl)amino)-4-fluorophenyl)-3-((fluoromethoxy)methyl)azetidine-1-sulfonamide trifluoroacetate] | 0.113 | 1.41 | – | – | – |
